These results are taken from patent US20090258824A1, “Amyloid beta receptor and uses thereof” (priority 2005, published 2009).

Molecules are shown by their SMILES.

The subject of the assay is cultured cortical neurons. Briefly: Calcium imaging (Fluo-4) in cultured cortical neurons. The class given is cell-based, rat (Sprague Dawley). To be noted: antagonist co-applied with Aβ*56. Here is the method: Cultured neurons. Cultures of cortical neurons from P1 Sprague Dawley rat pups were prepared according to previously published protocols (Dubinsky, J Neurosci 13, 623-631 (1993)). Dissections of cortical mantels excluded meninges, hippocampus, septal regions, and basal ganglia. […]
Size-exclusion chromatography (SEC). […] Fractions of 500 μl of eluate in 50 mM Ammonium Acetate, pH 8.5, were diluted 1:100 or 1:750 in neurophysiology experiments, or were concentrated using a vacuum system (VacuFuge™, Brinkmann-Eppendorf) and analyzed by silver staining.
Calcium imaging. […] Calcium indicator dye fluorescence was monitored with 488 nanometer (nm) excitation, a 500 nm long-pass barrier filter and confocal microscopy (Odyssey scanner, Noran, Middleton, Wis.). […] To quantify neuronal Ca^2+ responses, Ca^2+ fluorescence was measured from single neurons or clusters of neurons. Baseline fluorescence was normalized to one and the area between the curve and the baseline calculated using Origin software analysis routines (OriginLab Corporation, Northampton, Mass.).

Turning to `O=C(O)C1CN(CCCP(=O)(O)O)CCN1` (racemic) [CPP, (+/−)-3-(2-carboxypiperazin-4-yl)-propyl-1-phosphonic acid], the “effect on the Aβ*56-induced increase in Ca2+ signal” value is listed as “completely abolished”.
The same measure for `CCC(N)(C(=O)O)c1ccc(C(=O)O)cc1` (racemic) [E4CPG, (RS)-α-Ethyl-4-carboxyphenylglycine]: “failed to block”.
